This passage reports half-life results from ChEMBL document CHEMBL5537141, “Targeting PIM kinases in cancer therapy: An update on pharmacological small-molecule inhibitors” (Eur J Med Chem, 2024).

The data set can be described thus: Metabolic stability in human liver microsomes assessed as half life measured upto 60 mins by LC/MS-MS analysis. In kind it is ADME, Microsome. In general terms: Liver microsomes are a subcellular fraction often used to study metabolism.
On to `C[C@@H]1C[C@H](N)C[C@H](c2ccncc2NC(=O)c2ccc(F)c(-c3ccccc3F)n2)C1`, for which the half-life was greater than 180 min.

Regarding `C[C@@H]1C[C@H](N)CN(c2ccncc2NC(=O)c2ccc(F)c(-c3ccccc3F)n2)C1`, the half-life is 13 min. Then `C[C@@H]1C[C@H](N)CN(c2ccncc2NC(=O)c2ccc(F)c(-c3c(F)cccc3F)n2)C1`, with 40 min.

As a reminder, the half-life is how long it takes for the measured level to halve.
